# Measured values reported in patent US5591741A, “Fungicidal spiroheterocyclic derivatives” (American Cyanamid Company, priority 1993, dated 1997).
# Tests used:
# Plasmopara viticola = test: Antisporulant activity against vine downy mildew (PVA); format: in vivo; conditions: vine leaves, antisporulant foliar spray, 600 ppm, 750 l/ha
# Method in brief: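 Cabernet Sauvignon vines (~8 cm) inoculated on lower leaf surfaces with 5×10^4 zoosporangia/ml, held 24 h at 21° C high humidity then 24 h glasshouse. Infected leaves sprayed underside with 600 ppm compound in 1:1 water/acetone, 0.04% Tween 20, 750 l/ha; 96 h glasshouse, 24 h humidity. Sporulating leaf area rated versus control.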
# Alternaria solani = test: Activity against tomato early blight (AS); format: in vivo; conditions: Table VI; tomato seedlings, contact prophylactic foliar spray, 4 days
# Method in brief: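 Foliar contact prophylactic spray on tomato seedlings (cv Outdoor Girl, second true leaf expanded) in acetone/water 50:50 with 0.04% Tween 20; 24 h at 20° C, 40% R.H., then inoculation with 10^4 spores/ml A. solani conidia. Kept moist at 21° C; lesion cover rated 4 days post-inoculation against untreated or diluent-sprayed controls.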
# Botrytis cinerea = test: Direct protectant activity against broad bean grey mould (BCB); format: in vivo; conditions: direct protectant foliar spray, 600 ppm, 4 days
# Method in brief: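 Broad bean plants (cv The Sutton, two leaf pairs) sprayed on upper leaf surfaces at 600 ppm, then inoculated 24 h later with 10^6 conidia/ml. Kept 4 days at 22 °C, high humidity; disease control rated from % leaf area with lesions against untreated or diluent controls.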
# Leptosphaeria nodorum = test: Activity against wheat leafspot (LN); format: in vivo; conditions: direct therapeutic foliar spray, 600 ppm, 6-8 days
# Method in brief: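 Wheat cv Norman at single-leaf stage spray-inoculated with 1.5×10^6 conidia/ml, held 24 h at high humidity, then sprayed therapeutically with test compound at 600 ppm. Kept 6-8 days at 22° C, 70% humidity; lesion density per leaf rated against untreated or diluent-sprayed controls.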
# [1] = system: Erysiphe graminis f.sp. hordei; test: Activity against barley powdery mildew, direct therapeutic (EGT); format: in vivo; conditions: direct therapeutic foliar spray, 600 ppm, up to 7 days
# Method in brief: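 Barley seedlings (cv. Golden Promise, single-leaf stage) were dusted with mildew conidia one day before a therapeutic foliar spray of 600 ppm compound. Plants were kept at 18 °C and 40% humidity for up to 7 days, and sporulating leaf area was rated against untreated or diluent-sprayed controls.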
# [2] = system: Erysiphe graminis f.sp. hordei; test: Direct protectant activity against barley powdery mildew (EGP); format: in vivo; conditions: direct protectant foliar spray, 8 days
# Method in brief: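 Barley seedlings (cv Golden Promise, single-leaf stage) were foliar-sprayed, held 24 h at 18 °C/40% RH, then dusted with mildew conidia. After 8 days at 18 °C/40% RH, sporulating leaf area was scored as a rating against untreated or diluent-sprayed controls.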
# Phytophthora infestans = format: in vivo; conditions: tomato, direct protectant foliar spray
# [3] = system: Pseudocercosporella herpotrichoides; test: Activity against wheat eyespot in-vitro (PHI); format: cell-based; conditions: 10 ppm, 10 days, 20° C., mycelial growth
# Method in brief: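 P. herpotrichoides mycelial fragments (5×10^4/ml) grown in half-strength PDB with compound at 10 ppm final, added from acetone. Incubated 10 days at 20 °C; mycelial growth rated against untreated or diluent controls.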
# Rhizoctonia solani = test: Activity against Rhizoctonia in-vitro (RSI); format: cell-based; conditions: 10 ppm, 10 days, 20° C., mycelial growth
# Method in brief: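 R. solani mycelial fragments (5×10^4/ml) in half-strength Potato Dextrose Broth with compound added from acetone to 10 ppm final. Mycelial growth assessed after 10 days at 20° C, rated against untreated or diluent control.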
# Venturia inaequalis = test: Activity against apple scab in-vitro (VII); format: cell-based; conditions: 10 ppm, 10 days, 20° C., mycelial growth
# Method in brief: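 Compound in acetone was tested at 10 ppm final in half-strength Potato Dextrose Broth inoculated with V. inaequalis mycelial fragments and spores at 5×10^4 propagules/ml. After 10 days at 20° C, mycelial growth was rated against untreated or diluent controls.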
# Pyricularia oryzae = format: in vivo; conditions: rice seedlings, direct therapeutic foliar spray, 600 ppm, 4-5 days
Compound,disease control rating PVA (Plasmopara viticola),disease control rating AS (Alternaria solani),disease control rating BCB (Botrytis cinerea),disease control rating LN (Leptosphaeria nodorum),disease control rating EGT [1],disease control rating EGP [2],disease control rating PIP (Phytophthora infestans),disease control rating PHI [3],disease control rating RSI (Rhizoctonia solani),disease control rating VII (Venturia inaequalis),disease control rating PO (Pyricularia oryzae)
CCN(CC1CCCCC1)C1COC2(CCC(C(C)(C)C)CC2)C1 (centres unmarked) [Compound 92],0 (less than 50% disease control),0 (less than 50% disease control),2 (greater than 80% disease control),0 (less than 50% disease control),2 (greater than 80% disease control),2 (greater than 80% disease control),2 (greater than 80% disease control),0 (less than 50% disease control),1 (about 50-80% disease control),0 (less than 50% disease control),0 (less than 50% disease control)
CCCCCCN(C)C1COC2(CCC(C(C)(C)CC)CC2)C1 (centres unmarked) [Compound 60],0 (less than 50% disease control),0 (less than 50% disease control),0 (less than 50% disease control),1 (about 50-80% disease control),2 (greater than 80% disease control),2 (greater than 80% disease control),0 (less than 50% disease control),0 (less than 50% disease control),2 (greater than 80% disease control),1 (about 50-80% disease control),0 (less than 50% disease control)
CC(C)(C)C1CCC2(CC1)CC(Nc1ccc(Cl)cc1)CO2 (centres unmarked) [Compound 23],0 (less than 50% disease control),0 (less than 50% disease control),0 (less than 50% disease control),0 (less than 50% disease control),0 (less than 50% disease control),0 (less than 50% disease control),0 (less than 50% disease control),0 (less than 50% disease control),0 (less than 50% disease control),2 (greater than 80% disease control),0 (less than 50% disease control)
CC(C)CN(CC(C)C)C1COC2(CCC(C(C)(C)C)CC2)C1 (centres unmarked) [Compound 143],0 (less than 50% disease control),0 (less than 50% disease control),0 (less than 50% disease control),0 (less than 50% disease control),2 (greater than 80% disease control),2 (greater than 80% disease control),0 (less than 50% disease control),0 (less than 50% disease control),0 (less than 50% disease control),0 (less than 50% disease control),0 (less than 50% disease control)
CCCCCNC1COC2(CCC(c3ccccc3)CC2)C1 (centres unmarked) [Compound 54],0 (less than 50% disease control),0 (less than 50% disease control),0 (less than 50% disease control),0 (less than 50% disease control),2 (greater than 80% disease control),2 (greater than 80% disease control),0 (less than 50% disease control),0 (less than 50% disease control),0 (less than 50% disease control),1 (about 50-80% disease control),0 (less than 50% disease control)
CCC(C)(C)C1CCC2(CC1)CC(NC1CCCCC1)CO2 (centres unmarked) [Compound 51],0 (less than 50% disease control),2 (greater than 80% disease control),0 (less than 50% disease control),0 (less than 50% disease control),2 (greater than 80% disease control),2 (greater than 80% disease control),2 (greater than 80% disease control),1 (about 50-80% disease control),1 (about 50-80% disease control),1 (about 50-80% disease control),0 (less than 50% disease control)
"CCCCCCCCNCC1COC2(CCC(C(C)(C)C)CC2)C1 (centres unmarked) [Compound 183, 8-t-butyl-3-n-octylaminomethyl-1-oxaspiro(4,5)-decane]",0 (less than 50% disease control),0 (less than 50% disease control),0 (less than 50% disease control),0 (less than 50% disease control),2 (greater than 80% disease control),2 (greater than 80% disease control),1 (about 50-80% disease control),1 (about 50-80% disease control),2 (greater than 80% disease control),2 (greater than 80% disease control),0 (less than 50% disease control)
CC(C)(C)C1CCC2(CC1)CC(NC1CC3CCC1C3)CO2 (centres unmarked) [Compound 85],0 (less than 50% disease control),0 (less than 50% disease control),2 (greater than 80% disease control),0 (less than 50% disease control),2 (greater than 80% disease control),2 (greater than 80% disease control),2 (greater than 80% disease control),0 (less than 50% disease control),0 (less than 50% disease control),1 (about 50-80% disease control),0 (less than 50% disease control)
CN(CC1(C)CCCCC1)C1COC2(CCC(C(C)(C)C)CC2)C1 (centres unmarked) [Compound 125],0 (less than 50% disease control),0 (less than 50% disease control),0 (less than 50% disease control),0 (less than 50% disease control),2 (greater than 80% disease control),2 (greater than 80% disease control),0 (less than 50% disease control),1 (about 50-80% disease control),0 (less than 50% disease control),1 (about 50-80% disease control),0 (less than 50% disease control)
CC(C)(C)C1CCC2(CC1)CC(CNC1CCCCC1)CO2 (centres unmarked) [Compound 185],0 (less than 50% disease control),1 (about 50-80% disease control),1 (about 50-80% disease control),0 (less than 50% disease control),2 (greater than 80% disease control),2 (greater than 80% disease control),0 (less than 50% disease control),0 (less than 50% disease control),0 (less than 50% disease control),0 (less than 50% disease control),0 (less than 50% disease control)
